Test results published in patent US6706740B2, “Fungicidal heterocyclic aromatic amides and their compositions, methods of use and preparation” (Dow AgroSciences LLC, priority 1999, dated 2004).

Columns and labels:
[1] = tested on: Magnaporthe grisea (Pyricularia oryzae—PYRIOR); assay: microbe, parasite or virus in culture; assay type: cell-based; conditions: Pyricularia oryzae, read-out: PYRIOR in vitro Growth Inhibition
[2] = tested on: Rhizoctonia solani (RHIZSO); assay: microbe, parasite or virus in culture; assay type: cell-based; conditions: Rhizoctonia solani, read-out: RHIZSO in vitro Growth Inhibition
[3] = tested on: Mycosphaerella graminicola (Septoria tritici—SEPTTR); assay: In vitro fungal growth inhibition, Mycosphaerella graminicola (SEPTTR); assay type: cell-based; conditions: Zymoseptoria tritici; 25 ppm in the growth medium; read-out: SEPTTR in vitro Growth Inhibition
[4] = tested on: Stagonospora nodorum (Leptosphaeria nodorum—LEPTNO); assay: In vitro fungal growth inhibition, Stagonospora nodorum (LEPTNO); assay type: cell-based; conditions: Leptosphaeria; 25 ppm in the growth medium; read-out: LEPTNO in vitro Growth Inhibition
Ustilago maydis (USTIMA) = assay: microbe, parasite or virus in culture; assay type: cell-based; conditions: Mycosarcoma maydis, read-out: USTIMA in vitro Growth Inhibition
[5] = tested on: Phytophthora infestans (PHYTIN); assay: microbe, parasite or virus in culture; assay type: cell-based; conditions: Phytophthora infestans, read-out: PHYTIN in vitro Growth Inhibition
[6] = tested on: Phytophthora infestans—PHYTIN; assay: whole plant or invertebrate; assay type: in vivo; conditions: Phytophthora, in Solanum lycopersicum, 24 h, read-out: PHYTIN in vivo 1 Day Protectant
[7] = tested on: Puccinia recondita—PUCCRT; assay: Brown Rust of Wheat, in vivo whole plant, 24 Hour Protectant; conditions: Puccinia; wheat plants sprayed at 100 ppm, inoculated after 24 hours; control of fungal infection vs untreated plants; read-out: PUCCRT in vivo 1 Day Protectant
Erysiphe graminis—ERYSGT = assay: Powdery Mildew of Wheat, in vivo whole plant, 24 Hour Protectant; conditions: Erysiphe; wheat plants sprayed at 100 ppm, inoculated after 24 hours; control of fungal infection vs untreated plants; read-out: ERYSGT in vivo 1 Day Protectant
Septoria tritici—SEPTTR = assay: Leaf Blotch of Wheat, in vivo whole plant, 24 Hour Protectant; conditions: Zymoseptoria tritici, 24 h, wheat plants sprayed at 100 ppm, inoculated after 24 hours; control of fungal infection vs untreated plants; read-out: SEPTTR in vivo 1 Day Protectant
[8] = tested on: Leptosphaeria nodorum—LEPTNO; assay: Glume Blotch of Wheat, in vivo whole plant, 24 Hour Protectant; conditions: Leptosphaeria; wheat plants sprayed at 100 ppm, inoculated after 24 hours; control of fungal infection vs untreated plants; read-out: LEPTNO in vivo 1 Day Protectant

Structure (SMILES) | inhibition at 25 ppm [1] | inhibition at 25 ppm [2] | inhibition at 25 ppm [3] | inhibition at 25 ppm [4] | inhibition at 25 ppm (Ustilago maydis (USTIMA)) | inhibition at 25 ppm [5] | pest or weed control at 100 ppm [6] | pest or weed control at 100 ppm [7] | pest or weed control at 100 ppm (Erysiphe graminis—ERYSGT) | pest or weed control at 100 ppm (Septoria tritici—SEPTTR) | pest or weed control at 100 ppm [8] | melting point
CSc1ccnc(C(=O)NC2COC(=O)[C@H](Cc3ccccc3)[C@@H](OC(=O)C(C)C)[C@H](C)OC2=O)c1O (stereo partly drawn) [Compound 478] | < 80% | < 80% | < 80% | < 80% | < 80% | < 80% | < 25% | 25 to 74% | < 25% | 25 to 74% | 25 to 74% | 184 to 187 °C
CSc1ccnc(C(=O)Nc2ccc(Oc3cccc(C(F)(F)F)c3)cc2)c1O [Compound 479] | < 80% | < 80% | < 80% | < 80% | < 80% | < 80% | < 25% | < 25% | < 25% | 25 to 74% | 25 to 74% | 129 to 132 °C
O=C(NCc1ccccn1)c1nc(Br)ccc1O [Compound 483] | < 80% | < 80% | < 80% | > 80% | < 80% | < 80% | < 25% | < 25% | < 25% | < 25% | < 25% | 124 to 126 °C
O=C(NCC1CCCc2ccccc21)c1nc(Br)ccc1O (stereo not drawn) [Compound 485] | < 80% | < 80% | < 80% | < 80% | < 80% | < 80% | < 25% | < 25% | < 25% | < 25% | < 25% | 140 to 142 °C
COc1ccc(C(C)NC(=O)c2nc(Br)ccc2O)cc1 (stereo not drawn) [Compound 486] | > 80% | < 80% | < 80% | < 80% | < 80% | < 80% | < 25% | < 25% | < 25% | < 25% | < 25% | 111 to 113 °C
CC(NC(=O)c1nc(Br)ccc1O)c1ccc(Cl)cc1 (stereo not drawn) [Compound 487] | > 80% | < 80% | < 80% | < 80% | < 80% | < 80% | < 25% | 25 to 74% | < 25% | < 25% | < 25% | 106 to 107 °C
CC1(C)CC(NC(=O)c2cnccc2O)CC(C)(C)C1 [Compound 502] | < 80% | < 80% | < 80% | < 80% | < 80% | < 80% | < 25% | 25 to 74% | < 25% | 25 to 74% | 25 to 74% | 232 to 235 °C (dec.)
CC(C)C(=O)O[C@H]1[C@H](C)OC(=O)[C@@H](NC(=O)c2cnccc2O)COC(=O)[C@@H]1Cc1ccccc1 [Compound 503] | < 80% | < 80% | > 80% | > 80% | < 80% | < 80% | < 25% | 25 to 74% | 25 to 74% | < 25% | 25 to 74% | 213 to 215 °C (dec.)
CC(C)(C)C1CCC(NC(=O)c2cnccc2O)CC1 (stereo not drawn) [Compound 504] | < 80% | < 80% | < 80% | > 80% | < 80% | < 80% | < 25% | < 25% | < 25% | < 25% | 25 to 74% | 70 to 78 °C
CC(C)(C)CNC(=O)c1cccnc1O [Compound 514] | < 80% | < 80% | < 80% | < 80% | < 80% | < 80% | < 25% | < 25% | < 25% | < 25% | 25 to 74% | 180 to 181 °C
O=C(NC1CCCCC1)c1cccnc1O [Compound 515] | < 80% | < 80% | < 80% | < 80% | < 80% | < 80% | < 25% | < 25% | < 25% | 25 to 74% | < 25% | 190 to 192 °C
COc1cccc(CNC(=O)c2cccnc2O)c1OC [Compound 516] | < 80% | < 80% | < 80% | < 80% | < 80% | < 80% | < 25% | < 25% | < 25% | < 25% | < 25% | 193 to 194 °C
O=C(NCc1ccc(Cl)c(Cl)c1)c1cccnc1O [Compound 517] | < 80% | < 80% | < 80% | < 80% | < 80% | < 80% | < 25% | < 25% | < 25% | < 25% | 25 to 74% | 229 to 230 °C
